The record followed here is patent US8715621B2, “Radical polarizing agents for dynamic nuclear polarization” (Massachusetts Institute of Technology, priority 2012, dated 2014).

Data set [1] in a line: Solubility in water / aqueous media. In kind it is physicochemical.
Data set [2] can be described thus: Stability in air. Format: physicochemical.
A short description of data set [3]: EPR spectrum: line width, aggregation, dimerization. To be noted: solution, glass or solid.

Regarding 1,3-bisdiphenylene-2-phenylallyl [BDPA], the “solubility in water / aqueous media” value in data set [1] was “lack of solubility in aqueous media”. Further, in data set [2], the air stability entry is given as “air stable”. For the same substance, the “aggregate formation or radical dimerization” value in data set [3] is listed as “no dimerization in solid or in solution”.
